Patent US4108991A, “N-aminosulfenyl derivatives of aldicarb” (priority 1976, dated 1978)

Tests used:
Pea aphid [1] = experiment: Residual (7-day) contact activity, pea aphid; format: in vivo, Acyrthosiphon pisum [Harris]; settings: Acyrthosiphon pisum, 168 h
Protocol: (§1) Initial Contact Activity: One half gram of test compound was dissolved in 40 ml of acetone and this solution was dispersed in 360 ml of water containing one drop of isooctylphenyl polyethoxyethanol. Aliquots of this solution, which corresponds to 1250 ppm of active ingredient, were diluted with an appropriate amount of water to provide solutions containing various concentrations of active ingredient. Test organisms and techniques were as follows: The activity against the Mexican bean beetle (Epilachna varivestis Muls.) and the southern armyworm (Spodoptera eridania [Cram.]) was evaluated by dipping the leaves of pinto bean plants into the test solution and infesting the leaves with the appropriate immature-form insects when the foiliage had dried; the activity against the pea aphid (Acyrthosiphon pisum [Harris]) was evaluated on broad bean plants whose leaves were dipped before infestation with adult aphids; the activity against two-sotted spider mites (Tetranychus urticae Koch) was evaluated on pinto bean plants whose leaves were dipped after infestation with adult mites; the activity against the milkweed bug (Oncopeltus fasciatus [Dallas]), and the plum curculio (Conotrachelus nenuphar [Herbst]) was evaluated by spraying the test solutions into glass dishes or jars containing the adult insects; the activity against the confused flour beetle (Tribolium confusum duVal) was evaluated by introducing the insects into glass dishes which had been previously sprayed with test solution and allowed to dry. All organisms in the test were maintained in a holding room at 80° F and 50% relative humidity for an exposure period of 48 hours. At the end of this time, the dead and living insects or mites were counted, and the percent kill was calculated.
(§2) Residual Contact Activity: The residual contact activity of the compounds was determined on the same organisms using the techniques described above, except that in each case the treated surface was allowed to dry and was exposed to normal light and air for seven days before introduction of the mites or insects.

Pea aphid [2] = experiment: Initial contact activity, leaf dip, pea aphid; format: in vivo, Acyrthosiphon pisum [Harris]; settings: Acyrthosiphon pisum, foliar, 48 h, initial, PA, 48 hours, read-out: Percent Kill
Protocol: as §1

Granary Weevil = experiment: Initial contact activity, granary weevil; format: in vivo; settings: Sitophilus granarius, 48 h, initial, GW, 48 hours, read-out: Percent Kill
Mexican bean beetle [3] = experiment: Residual (7-day) contact activity, Mexican bean beetle; format: in vivo, Epilachna varivestis Muls.; settings: Epilachna varivestis, 168 h
Protocol: as §1, §2

Milkweed bug [4] = experiment: Residual (7-day) contact activity, milkweed bug; format: in vivo, Oncopeltus fasciatus [Dallas]; settings: Oncopeltus fasciatus, 168 h
Protocol: as §1, §2

Milkweed bug [5] = experiment: Initial contact activity, spray, milkweed bug; format: in vivo, Oncopeltus fasciatus [Dallas]; settings: Oncopeltus fasciatus, 48 h, initial, MWB, 48 hours, read-out: Percent Kill
Protocol: as §1

Mexican bean beetle [6] = experiment: Systemic activity, soil-watering, Mexican bean beetle; format: in vivo, Epilachna varivestis Muls.; settings: Epilachna varivestis, 48 h, systemic, BB, read-out: Percent Kill
Protocol: as §1
Systemic Activity: Systemic activity was measured using a soil-watering technique. Test organisms were Mexican bean beetle, southern armyworm, pea aphid, and mites on plants as described above in this Example. With appropriate precautions to avoid contact of the solution with the test plant surfaces, 25 ml of a test solution, prepared as above to contain the desired amount of active ingredient, were poured evenly over the surface of the soil in which the plant was growing. The treated plants were maintained under normal growing conditions for three days to permit translocation of the toxicant, after which the leaves were infested. Two days after infestation, counts of living and dead insects were made.

Southern armyworm [7] = experiment: Residual (7-day) contact activity, southern armyworm; format: in vivo, Spodoptera eridania [Cram.]; settings: Spodoptera eridania, 168 h
Protocol: as §1, §2

Southern armyworm [8] = experiment: Initial contact activity, leaf dip, southern armyworm; format: in vivo, Spodoptera eridania [Cram.]; settings: Spodoptera eridania, foliar, 48 h, initial, AW, 48 hours, read-out: Percent Kill
Protocol: as §1

CSC(C)(C)C=NOC(=O)N(C)SN(C)C [Example IV, 2-Methyl-2-(methylthio)propanal O-[(dimethylaminosulfenyl)-(methyl)carbamoyl]oxime]
mortality at 625 ppm (Pea aphid [1]; read-out: Percent Kill, residual 7-day, PA, 625 PPM): 5%
mortality at 312 ppm (Pea aphid [1]; residual 7-day, PA, 312 PPM, read-out: Percent Kill): 10%
mortality at 1250 ppm (Pea aphid [1]; residual 7-day, PA, 1250 PPM, read-out: Percent Kill): 5%
mortality at 20 ppm (Pea aphid [2]; 20 PPM): 0%
mortality at 39 ppm (Pea aphid [2]; 39 PPM): 5%
mortality at 156 ppm (Pea aphid [2]; 156 PPM): 95%
mortality at 1250 ppm (Pea aphid [2]; 1250 PPM): 100%
mortality at 20 ppm (Granary Weevil; 20 PPM): 0%
mortality at 39 ppm (Granary Weevil; 39 PPM): 5%
mortality at 156 ppm (Granary Weevil; 156 PPM): 50%
mortality at 1250 ppm (Granary Weevil; 1250 PPM): 100%
mortality at 625 ppm (Mexican bean beetle [3]; read-out: Percent Kill, residual 7-day, BB, 625 PPM): 40%
mortality at 312 ppm (Mexican bean beetle [3]; residual 7-day, BB, 312 PPM, read-out: Percent Kill): 17%
mortality at 1250 ppm (Mexican bean beetle [3]; residual 7-day, BB, 1250 PPM, read-out: Percent Kill): 50%
mortality at 625 ppm (Milkweed bug [4]; read-out: Percent Kill, residual 7-day, MWB, 625 PPM): 100%
mortality at 312 ppm (Milkweed bug [4]; residual 7-day, MWB, 312 PPM, read-out: Percent Kill): 65%
mortality at 1250 ppm (Milkweed bug [4]; residual 7-day, MWB, 1250 PPM, read-out: Percent Kill): 100%
mortality at 5 ppm (Milkweed bug [5]; 5 PPM): 20%
mortality at 10 ppm (Milkweed bug [5]; 10 PPM): 26%
mortality at 20 ppm (Milkweed bug [5]; 20 PPM): 43%
mortality at 1250 ppm (Milkweed bug [5]; 1250 PPM): 100%
mortality at 39 ppm (Mexican bean beetle [6]; 39 PPM): 100%
mortality at 312 ppm (Mexican bean beetle [6]; 312 PPM): 100%
mortality at 625 ppm (Southern armyworm [7]; read-out: Percent Kill, residual 7-day, AW, 625 PPM): 0%
mortality at 1250 ppm (Southern armyworm [7]; residual 7-day, AW, 1250 PPM, read-out: Percent Kill): 20%
mortality at 156 ppm (Southern armyworm [8]; 156 PPM): 0%
mortality at 312 ppm (Southern armyworm [8]; 312 PPM): 0%
mortality at 625 ppm (Southern armyworm [8]; 625 PPM): 0%
mortality at 1250 ppm (Southern armyworm [8]; 1250 PPM): 12%
